Active and inactive are the calls of the source. The calls are words filed in the database; no cut-off is given here.
Tests used:
BaF3 [1] = test: Inhibition of CCDC6-RET V804M mutant fusion protein (unknown origin) expressed in mouse BaF3 cells assessed as reduction in AKT phosphorylation at 10 to 500 nM measured after 4 hrs by Western blot analysis; assay type: cell-based; conditions: Homo sapiens, dose 10-500 nM
[2] = target: T1, Coiled-coil domain-containing protein 6/Tyrosine-protein kinase receptor RET (Homo sapiens) (UniProt P07949+Q16204); test: Inhibition of CCDC6-RET fusion protein in human LC-2-ad cells assessed as reduction in cell proliferation measured after 48 hrs by MTS assay; assay type: cell-based
BaF3 [3] = test: Inhibition of CCDC6-RET V804M mutant fusion protein (unknown origin) expressed in mouse BaF3 cells assessed as reduction in SHC phosphorylation at 10 to 500 nM measured after 4 hrs by Western blot analysis; assay type: cell-based; conditions: Homo sapiens, dose 10-500 nM
[4] = Toxicity in BALB/c mouse implanted with KIF5B-RET V804M mutant fusion protein expressing mouse BaF3 cells assessed as body weight loss at 30 to 50 mg/kg, iv administered daily for 7 days measured daily during compound dosing; assay type: organism-based; conditions: in vivo, 168 h, dose 30-50 mg/kg, time 7 day
HepG2 = test: Antiproliferative activity against human HepG2 cells at 3.3 uM measured after 48 hrs by MTS assay; assay type: functional; conditions: read-out: GI
KYSE-450 = test: Antiproliferative activity against human KYSE-450 cells at 3.3 uM measured after 48 hrs by MTS assay; assay type: functional; conditions: read-out: GI
[5] = target: T2, Proto-oncogene tyrosine-protein kinase receptor Ret (Homo sapiens, UniProt P07949); test: Binding affinity to wild-type human partial length RET (E713 to D1014 residues) expressed in bacterial expression system assessed as residual binding level at 1 uM by kinomescan method relative to control
[6] = target: T1, Coiled-coil domain-containing protein 6/Tyrosine-protein kinase receptor RET (Homo sapiens); test: Inhibition of CCDC6-RET fusion protein (unknown origin) expressed in mouse BaF3 cells assessed as reduction in RET phosphorylation at 10 to 500 nM measured after 4 hrs by Western blot analysis; assay type: cell-based; conditions: dose 10-500 nM
[7] = Cmax in Sprague-Dawley rat at 10 mg/kg, po; assay type: ADME, organism-based; design: route oral, dose 10 mg/kg; conditions: in vivo
[8] = system: Kinesin-1 heavy chain/ Tyrosine-protein kinase receptor RET (Homo sapiens), P07949+P33176 [V804M]; test: Inhibition of KIF5B-RET V804M mutant fusion protein (unknown origin) expressed in mouse BaF3 cells assessed as reduction in AKT phosphorylation at 500 nM measured after 4 hrs by Western blot analysis; assay type: cell-based
BaF3 [9] = test: Induction of apoptosis in KIF5B-RET V804M mutant fusion protein expressing mouse BaF3 cells implanted in BALB/c mouse assessed as increase in cleaved caspase-3 level at 30 to 50 mg/kg, iv administered once daily for 7 days measured 4 hrs post last dose by H and E staining based immunohistochemical analysis; assay type: functional, organism-based; conditions: dose 30-50 mg/kg, time 7.0 day
[10] = system: Kinesin-1 heavy chain/ Tyrosine-protein kinase receptor RET (Homo sapiens), P07949+P33176 [V804M]; test: Inhibition of KIF5B-RET V804M mutant fusion protein (unknown origin) expressed in mouse BaF3 cells assessed as reduction in […] measured after 4 hrs by Western blot analysis; assay type: cell-based
[11] = system: Kinesin-1 heavy chain/ Tyrosine-protein kinase receptor RET (Homo sapiens), P07949+P33176 [V804M]; test: Inhibition of KIF5B-RET V804M mutant fusion protein (unknown origin) expressed in mouse BaF3 cells assessed as reduction in cell proliferation measured after 48 hrs by MTS assay; assay type: cell-based
BaF3 [12] = test: Antitumor activity against KIF5B-RET fusion protein expressing mouse BaF3 cells implanted in iv dosed BALB/c mouse assessed as tumor growth inhibition administered once daily for 7 days; assay type: functional, organism-based; conditions: dose 30-50 mg/kg, time 7.0 day
BaF3 [13] = test: Antitumor activity against KIF5B-RET V804M mutant fusion protein expressing mouse BaF3 cells implanted in BALB/c mouse assessed as tumor growth inhibition at 30 to 50 mg/kg, iv administered once daily for 7 days relative to control; assay type: functional; conditions: dose 30-50 mg/kg, time 7 day
[14] = AUC (0 to t) in Sprague-Dawley rat at 10 mg/kg, po; assay type: ADME, organism-based; design: dose 10 mg/kg; conditions: in vivo
BaF3 [15] = test: Antitumor activity against KIF5B-RET V804M mutant fusion protein expressing mouse BaF3 cells implanted in iv dosed BALB/c mouse assessed as tumor growth inhibition administered once daily for 7 days; assay type: functional, organism-based; conditions: dose 30-50 mg/kg, time 7.0 day
[16] = target: Kinesin-1 heavy chain/ Tyrosine-protein kinase receptor RET (Homo sapiens) (UniProt P07949+P33176); test: Inhibition of KIF5B-RET fusion protein (unknown origin) expressed in mouse BaF3 cells assessed as reduction in […] measured after 4 hrs by Western blot analysis; assay type: cell-based
[17] = target: T1, Coiled-coil domain-containing protein 6/Tyrosine-protein kinase receptor RET (Homo sapiens); test: Inhibition of CCDC6-RET fusion protein (unknown origin) expressed in mouse BaF3 cells assessed as reduction in ERK phosphorylation at 10 to 500 nM measured after 4 hrs by Western blot analysis; assay type: cell-based; conditions: dose 10-500 nM
[18] = target: T1, Coiled-coil domain-containing protein 6/Tyrosine-protein kinase receptor RET (Homo sapiens); test: Inhibition of CCDC6-RET fusion protein (unknown origin) expressed in mouse BaF3 cells assessed as reduction in cell proliferation measured after 48 hrs by MTS assay; assay type: cell-based
Mus musculus = test: In vivo inhibition of KIF5B-RET V804M mutant fusion protein in BALB/c mouse implanted with KIF5B-RET V804M mutant fusion protein expressing mouse BaF3 cells assessed as reduction in SHC phosphorylation at 30 to 50 mg/kg, iv administered daily for 7 days and measured 4 hrs post last dose by Western blot analysis; assay type: functional, organism-based; conditions: dose 30-50 mg/kg, time 7.0 day
[19] = system: Kinesin-1 heavy chain/ Tyrosine-protein kinase receptor RET (Homo sapiens), P07949+P33176 [V804M]; test: Inhibition of KIF5B-RET V804M mutant fusion protein (unknown origin) expressed in mouse BaF3 cells assessed as reduction in RET autophosphorylation at 100 nM measured after 4 hrs by Western blot analysis; assay type: cell-based
[20] = Half life in Sprague-Dawley rat at 1 mg/kg, iv; assay type: ADME, organism-based; conditions: in vivo
[21] = Cmax in Sprague-Dawley rat at 1 mg/kg, iv; assay type: ADME, organism-based; design: route intravenous, dose 1 mg/kg; conditions: in vivo
BaF3 [22] = test: Inhibition of CCDC6-RET V804M mutant fusion protein (unknown origin) expressed in mouse BaF3 cells assessed as reduction in ERK phosphorylation at 10 to 500 nM measured after 4 hrs by Western blot analysis; assay type: cell-based; conditions: Homo sapiens, dose 10-500 nM
[23] = Oral bioavailability in Sprague-Dawley rat at 10 mg/kg; assay type: ADME, organism-based; conditions: in vivo
BGC-823 = test: Antiproliferative activity against human BGC-823 cells at 3.3 uM measured after 48 hrs by MTS assay; assay type: functional; conditions: read-out: GI
[24] = target: Kinesin-1 heavy chain/ Tyrosine-protein kinase receptor RET (Homo sapiens, UniProt P07949); test: Inhibition of KIF5B-RET fusion protein (unknown origin) by radiometric assay
[25] = target: T2, Proto-oncogene tyrosine-protein kinase receptor Ret; test: Inhibition of recombinant wild-type human N-terminal GST-HIS6 fused RET C-terminal domain (H658 to S1114 residues) expressed in Sf9 insect cells using TRK-C-derived peptide as substrate in presence of [33P]-ATP by filter binding assay
BaF3 [26] = test: Induction of apoptosis in KIF5B-RET fusion protein expressing mouse BaF3 cells implanted in BALB/c mouse assessed as increase in cleaved caspase-3 level at 30 to 50 mg/kg, iv administered once daily for 7 days measured 4 hrs post last dose by H and E staining based immunohistochemical analysis; assay type: functional, organism-based; conditions: dose 30-50 mg/kg, time 7.0 day
[27] = target: Coiled-coil domain-containing protein 6/Tyrosine-protein kinase receptor RET (Homo sapiens, UniProt P07949); test: Inhibition of human N-terminal GST-HIS6 fused CCDC6-RET fusion protein (Met1 to Ser503 residues) expressed in Sf9 insect cells using TRK-C-derived peptide as substrate in presence of [33P]-ATP by filter binding assay
Sequence of Coiled-coil domain-containing protein 6/Tyrosine-protein kinase receptor RET (P07949 whole entry, the tested form may be a part): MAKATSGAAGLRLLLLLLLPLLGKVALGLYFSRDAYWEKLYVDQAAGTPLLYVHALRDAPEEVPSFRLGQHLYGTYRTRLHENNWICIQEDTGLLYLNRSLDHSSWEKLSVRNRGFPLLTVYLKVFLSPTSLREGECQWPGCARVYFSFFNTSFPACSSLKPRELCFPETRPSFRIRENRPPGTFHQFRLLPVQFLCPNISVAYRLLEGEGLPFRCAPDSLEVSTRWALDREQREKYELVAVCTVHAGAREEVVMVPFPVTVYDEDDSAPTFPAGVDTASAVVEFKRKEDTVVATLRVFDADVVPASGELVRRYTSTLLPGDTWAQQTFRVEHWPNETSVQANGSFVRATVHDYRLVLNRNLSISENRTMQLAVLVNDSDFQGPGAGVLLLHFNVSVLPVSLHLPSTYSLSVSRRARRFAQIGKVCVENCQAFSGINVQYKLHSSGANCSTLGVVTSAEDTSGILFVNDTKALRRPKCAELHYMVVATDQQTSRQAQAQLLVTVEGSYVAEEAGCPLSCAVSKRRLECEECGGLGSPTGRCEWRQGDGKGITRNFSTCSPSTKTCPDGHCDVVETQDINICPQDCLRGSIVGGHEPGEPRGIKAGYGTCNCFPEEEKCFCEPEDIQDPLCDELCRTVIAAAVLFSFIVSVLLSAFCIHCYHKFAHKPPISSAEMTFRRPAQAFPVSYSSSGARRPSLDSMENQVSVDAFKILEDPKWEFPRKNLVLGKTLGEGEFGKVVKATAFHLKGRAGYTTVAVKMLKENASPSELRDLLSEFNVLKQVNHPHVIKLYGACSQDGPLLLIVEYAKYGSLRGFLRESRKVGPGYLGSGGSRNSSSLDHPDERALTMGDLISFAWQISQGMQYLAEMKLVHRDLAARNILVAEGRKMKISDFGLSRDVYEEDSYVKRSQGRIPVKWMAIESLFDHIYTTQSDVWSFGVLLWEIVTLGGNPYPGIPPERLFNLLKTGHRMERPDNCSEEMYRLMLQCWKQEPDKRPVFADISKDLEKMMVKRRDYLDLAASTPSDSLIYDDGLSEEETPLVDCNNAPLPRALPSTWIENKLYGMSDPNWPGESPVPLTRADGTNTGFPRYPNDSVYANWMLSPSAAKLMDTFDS
Sequence of Coiled-coil domain-containing protein 6/Tyrosine-protein kinase receptor RET (Q16204 whole entry, further chain, the tested form may be a part): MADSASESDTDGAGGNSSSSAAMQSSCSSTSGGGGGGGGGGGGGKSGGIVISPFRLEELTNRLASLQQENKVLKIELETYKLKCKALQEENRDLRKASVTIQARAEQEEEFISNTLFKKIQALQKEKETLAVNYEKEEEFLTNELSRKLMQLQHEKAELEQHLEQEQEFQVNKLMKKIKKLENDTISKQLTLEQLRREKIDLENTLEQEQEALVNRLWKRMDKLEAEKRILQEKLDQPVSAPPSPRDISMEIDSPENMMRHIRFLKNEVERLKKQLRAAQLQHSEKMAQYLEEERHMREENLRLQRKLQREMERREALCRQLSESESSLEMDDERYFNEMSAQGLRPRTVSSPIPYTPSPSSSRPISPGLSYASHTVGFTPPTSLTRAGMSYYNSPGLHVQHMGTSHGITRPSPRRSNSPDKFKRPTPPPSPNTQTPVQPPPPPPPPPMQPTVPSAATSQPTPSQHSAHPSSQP

T1 sequence (P07949 29-1114 limits assumed): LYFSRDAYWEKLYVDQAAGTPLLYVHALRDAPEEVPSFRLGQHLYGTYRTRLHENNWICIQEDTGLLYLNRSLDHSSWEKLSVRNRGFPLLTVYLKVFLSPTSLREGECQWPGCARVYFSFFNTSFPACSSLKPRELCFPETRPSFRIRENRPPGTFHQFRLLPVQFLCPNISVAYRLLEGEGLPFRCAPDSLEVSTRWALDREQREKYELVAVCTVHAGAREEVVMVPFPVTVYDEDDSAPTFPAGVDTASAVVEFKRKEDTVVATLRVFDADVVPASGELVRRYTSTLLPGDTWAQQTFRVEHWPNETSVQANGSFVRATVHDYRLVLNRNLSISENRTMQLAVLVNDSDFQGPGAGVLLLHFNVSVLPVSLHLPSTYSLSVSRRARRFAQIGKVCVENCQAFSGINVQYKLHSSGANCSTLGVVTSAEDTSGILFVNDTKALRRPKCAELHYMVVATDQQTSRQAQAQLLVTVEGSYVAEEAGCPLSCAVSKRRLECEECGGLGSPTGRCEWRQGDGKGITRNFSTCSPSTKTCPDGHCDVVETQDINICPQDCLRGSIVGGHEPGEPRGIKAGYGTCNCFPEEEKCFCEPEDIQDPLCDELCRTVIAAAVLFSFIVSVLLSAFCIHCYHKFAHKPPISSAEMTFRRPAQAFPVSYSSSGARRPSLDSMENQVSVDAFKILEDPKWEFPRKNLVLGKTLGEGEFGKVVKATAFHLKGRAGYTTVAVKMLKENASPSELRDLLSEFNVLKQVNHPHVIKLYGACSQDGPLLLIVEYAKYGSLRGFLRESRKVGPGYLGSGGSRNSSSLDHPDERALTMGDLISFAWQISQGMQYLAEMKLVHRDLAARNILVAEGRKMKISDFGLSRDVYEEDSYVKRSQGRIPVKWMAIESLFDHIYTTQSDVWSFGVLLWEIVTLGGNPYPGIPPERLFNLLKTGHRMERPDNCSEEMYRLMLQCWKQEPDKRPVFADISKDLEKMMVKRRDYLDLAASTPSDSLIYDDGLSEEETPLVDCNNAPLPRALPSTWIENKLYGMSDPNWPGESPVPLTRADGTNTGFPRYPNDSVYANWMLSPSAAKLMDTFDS
T1 sequence (Q16204 2-474 partner limits assumed): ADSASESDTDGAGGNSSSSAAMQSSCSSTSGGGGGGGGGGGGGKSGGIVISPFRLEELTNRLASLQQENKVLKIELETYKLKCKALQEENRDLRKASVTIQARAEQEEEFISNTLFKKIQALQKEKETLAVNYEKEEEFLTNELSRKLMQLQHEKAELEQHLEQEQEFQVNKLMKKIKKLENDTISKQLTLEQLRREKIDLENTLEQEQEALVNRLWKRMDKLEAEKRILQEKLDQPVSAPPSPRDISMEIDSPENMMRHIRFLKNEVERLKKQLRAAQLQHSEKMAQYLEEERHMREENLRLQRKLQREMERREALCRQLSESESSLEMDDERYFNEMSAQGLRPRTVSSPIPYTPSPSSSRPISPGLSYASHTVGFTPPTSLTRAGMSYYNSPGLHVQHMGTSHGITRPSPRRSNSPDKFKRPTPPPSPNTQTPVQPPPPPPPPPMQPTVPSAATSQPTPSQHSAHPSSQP
T2 sequence (P07949 whole entry, the tested form may be a part): as the sequence (P07949 whole entry, the tested form may be a part) above
Sequence of Kinesin-1 heavy chain/ Tyrosine-protein kinase receptor RET (P07949 whole entry, the tested form may be a part): as above
Sequence of Kinesin-1 heavy chain/ Tyrosine-protein kinase receptor RET (P33176 whole entry, further chain, the tested form may be a part): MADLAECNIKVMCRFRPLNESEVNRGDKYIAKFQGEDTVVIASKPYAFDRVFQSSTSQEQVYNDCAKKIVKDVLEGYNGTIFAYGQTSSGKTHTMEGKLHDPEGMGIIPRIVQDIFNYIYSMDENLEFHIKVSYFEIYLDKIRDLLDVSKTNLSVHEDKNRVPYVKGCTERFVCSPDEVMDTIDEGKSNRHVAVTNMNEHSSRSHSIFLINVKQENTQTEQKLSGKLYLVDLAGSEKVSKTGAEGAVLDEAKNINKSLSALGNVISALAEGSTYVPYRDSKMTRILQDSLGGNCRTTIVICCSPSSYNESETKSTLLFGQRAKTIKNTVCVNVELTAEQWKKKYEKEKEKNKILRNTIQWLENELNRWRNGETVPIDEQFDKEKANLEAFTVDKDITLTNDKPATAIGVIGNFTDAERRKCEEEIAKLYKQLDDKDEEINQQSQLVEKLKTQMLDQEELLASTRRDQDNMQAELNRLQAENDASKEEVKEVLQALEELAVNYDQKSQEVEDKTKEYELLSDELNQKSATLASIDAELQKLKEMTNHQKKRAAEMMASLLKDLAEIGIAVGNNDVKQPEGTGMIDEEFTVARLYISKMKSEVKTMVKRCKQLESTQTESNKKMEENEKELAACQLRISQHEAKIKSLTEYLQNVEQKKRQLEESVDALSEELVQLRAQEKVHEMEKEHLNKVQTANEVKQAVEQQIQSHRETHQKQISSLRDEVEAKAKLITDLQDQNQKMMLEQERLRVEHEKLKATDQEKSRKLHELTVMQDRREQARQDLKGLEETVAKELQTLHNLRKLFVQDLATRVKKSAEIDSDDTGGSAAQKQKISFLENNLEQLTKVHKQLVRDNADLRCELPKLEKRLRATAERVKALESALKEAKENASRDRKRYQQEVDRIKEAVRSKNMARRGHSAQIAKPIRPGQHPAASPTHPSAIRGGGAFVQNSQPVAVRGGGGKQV

In the case of `Cc1ccc(C(=O)Nc2ccc(CN3CCN(C)CC3)c(C(F)(F)F)c2)cc1Oc1nc(-c2cccnc2)nc2[nH]ncc12`, the inhibition (BaF3 [1]) is reported as “Active”, the GI50 [2] is reported as 38 nM and the inhibition (BaF3 [3]) is reported as “Active”. For the same molecule, the Activity [4] was “Non-Toxic”, the inhibition of growth at 3.3 µM (HepG2) was 33% and the inhibition of growth at 3.3 µM (KYSE-450) was 39%. For the same molecule, the Activity [5] was 0.05%, the inhibition [6] was “Active” and the Cmax [7] was 194 ng/mL. The inhibition [8] was “Active”, the Activity (BaF3 [9]) was “Active” and the inhibition [10] was “Dose-dependent effect”. The GI50 [11] was 21 nM, the Activity (BaF3 [12]) was “Dose-dependent effect” and the TGI (BaF3 [13]) was greater than 60%. The AUC(0-t) [14] was 2110 ng·h/mL, the Activity (BaF3 [15]) was “Dose-dependent effect” and the inhibition [16] was “Dose-dependent effect”. For the same molecule, the inhibition [17] was “Active”, the GI50 [18] was 9 nM and the inhibition (Mus musculus) was “Dose-dependent effect”. The inhibition [19] was “Dose-dependent effect”, the half-life [20] was 4.28 h and the Cmax [21] was 6100 ng/mL. The inhibition (BaF3 [22]) was “Active”, the bioavailability [23] was 3% and the inhibition of growth at 3.3 µM (BGC-823) was 39%. The IC50 [24] was 8.86 nM, the IC50 [25] was 3.98 nM and the Activity (BaF3 [26]) was “Active”. It also gave an IC50 [27] of 5.43 nM.

— ChEMBL document CHEMBL4706552, “Discovery of 4-methyl-N-(4-((4-methylpiperazin- 1-yl)methyl)-3-(trifluoromethyl)phenyl)-3-((6-(pyridin-3-yl)-1H-pyrazolo[3,4-d]pyrimidin-4-yl)-oxy)benzamide as a potent inhibitor of RET and its gatekeeper mutant” (Eur J Med Chem, 2020)
